Experimental data: patent US20260356819A1, “OXOISOINDOLINYL-SUBSTITUTED […] DERIVATIVE AND USE THEREOF” (GLUETACS THERAPEUTICS (SHANGHAI) CO., LTD., priority 2023, published 2026)

Legend:
Assay type in all cases: cell-based
Details in all cases: compounds at 50 nM and 500 nM
[1] = molecular target: T1, WEE1 (Homo sapiens, UniProt P30291+Q96SW2); assay: Western blot degradation of WEE1 in hPBMCs (24 h)
T1 construct: The supernatant was aspirated as the extracted total cell protein; endogenous in cells; host or cells: human peripheral blood mononuclear cells (hPBMCs)
Procedure, shortened: (§1)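 hPBMCs (1×10^6 cells/mL) were treated with compound at 50 nM and 500 nM for 24 h, lysed in RIPA with protease inhibitors and analysed by SDS-PAGE/Western blot. Band grayscale, normalised to internal control, gave protein remaining (%); DC50 estimated versus DMSO bands.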

[2] = molecular target: T2, IKZF1 (Homo sapiens, UniProt Q13422+Q96SW2); assay: Western blot degradation of IKZF1 in hPBMCs (24 h)
T2 construct: The supernatant was aspirated as the extracted total cell protein; endogenous in cells; host or cells: human peripheral blood mononuclear cells (hPBMCs)
Procedure, shortened: as §1

[3] = molecular target: T3, IKZF2 (Homo sapiens, UniProt Q96SW2+Q9UKS7); assay: Western blot degradation of IKZF2 in hPBMCs (24 h)
T3 construct: The supernatant was aspirated as the extracted total cell protein; endogenous in cells; host or cells: human peripheral blood mononuclear cells (hPBMCs)
Procedure, shortened: as §1

[4] = molecular target: T4, IKZF3 (Homo sapiens, UniProt Q96SW2+Q9UKT9); assay: Western blot degradation of IKZF3 in hPBMCs (24 h)
T4 construct: The supernatant was aspirated as the extracted total cell protein; endogenous in cells; host or cells: human peripheral blood mononuclear cells (hPBMCs)
Procedure, shortened: as §1

[5] = molecular target: T5, CK1α (Homo sapiens, UniProt P48729+Q96SW2); assay: Western blot degradation of CK1α in hPBMCs (24 h)
T5 construct: The supernatant was aspirated as the extracted total cell protein; endogenous in cells; host or cells: human peripheral blood mononuclear cells (hPBMCs)
Procedure, shortened: as §1

[6] = molecular target: T6, GSPT1 (Homo sapiens, UniProt P15170+Q96SW2); assay: Western blot degradation of GSPT1 in hPBMCs (24 h)
T6 construct: The supernatant was aspirated as the extracted total cell protein; endogenous in cells; host or cells: human peripheral blood mononuclear cells (hPBMCs)
Procedure, shortened: as §1

T6 sequence (P15170 whole entry): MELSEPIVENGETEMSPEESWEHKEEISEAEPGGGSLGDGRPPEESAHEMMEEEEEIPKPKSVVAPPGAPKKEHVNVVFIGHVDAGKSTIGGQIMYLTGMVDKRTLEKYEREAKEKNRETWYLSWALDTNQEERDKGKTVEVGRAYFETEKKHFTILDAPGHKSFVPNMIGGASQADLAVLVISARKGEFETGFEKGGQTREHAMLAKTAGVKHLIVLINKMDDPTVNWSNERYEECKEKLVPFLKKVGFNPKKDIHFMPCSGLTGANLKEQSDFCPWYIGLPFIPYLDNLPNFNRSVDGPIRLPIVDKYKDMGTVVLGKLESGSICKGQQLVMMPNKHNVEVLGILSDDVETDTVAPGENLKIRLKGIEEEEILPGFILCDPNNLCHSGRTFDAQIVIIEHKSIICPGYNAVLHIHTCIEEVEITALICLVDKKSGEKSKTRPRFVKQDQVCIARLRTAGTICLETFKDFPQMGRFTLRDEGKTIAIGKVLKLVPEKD
T6 sequence (Q96SW2 whole entry): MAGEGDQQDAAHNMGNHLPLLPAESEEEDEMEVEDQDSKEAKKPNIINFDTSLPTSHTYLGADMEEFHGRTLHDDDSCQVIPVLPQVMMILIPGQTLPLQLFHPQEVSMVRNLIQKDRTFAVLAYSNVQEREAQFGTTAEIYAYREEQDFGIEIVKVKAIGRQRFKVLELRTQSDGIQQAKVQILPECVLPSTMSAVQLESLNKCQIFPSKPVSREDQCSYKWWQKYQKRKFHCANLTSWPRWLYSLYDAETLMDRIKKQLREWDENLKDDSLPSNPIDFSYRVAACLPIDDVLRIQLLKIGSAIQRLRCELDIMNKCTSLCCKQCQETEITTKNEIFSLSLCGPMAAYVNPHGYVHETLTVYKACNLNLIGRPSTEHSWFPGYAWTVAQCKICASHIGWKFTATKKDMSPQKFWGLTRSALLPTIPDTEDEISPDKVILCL
T6 sequence (Q16531 whole entry partner): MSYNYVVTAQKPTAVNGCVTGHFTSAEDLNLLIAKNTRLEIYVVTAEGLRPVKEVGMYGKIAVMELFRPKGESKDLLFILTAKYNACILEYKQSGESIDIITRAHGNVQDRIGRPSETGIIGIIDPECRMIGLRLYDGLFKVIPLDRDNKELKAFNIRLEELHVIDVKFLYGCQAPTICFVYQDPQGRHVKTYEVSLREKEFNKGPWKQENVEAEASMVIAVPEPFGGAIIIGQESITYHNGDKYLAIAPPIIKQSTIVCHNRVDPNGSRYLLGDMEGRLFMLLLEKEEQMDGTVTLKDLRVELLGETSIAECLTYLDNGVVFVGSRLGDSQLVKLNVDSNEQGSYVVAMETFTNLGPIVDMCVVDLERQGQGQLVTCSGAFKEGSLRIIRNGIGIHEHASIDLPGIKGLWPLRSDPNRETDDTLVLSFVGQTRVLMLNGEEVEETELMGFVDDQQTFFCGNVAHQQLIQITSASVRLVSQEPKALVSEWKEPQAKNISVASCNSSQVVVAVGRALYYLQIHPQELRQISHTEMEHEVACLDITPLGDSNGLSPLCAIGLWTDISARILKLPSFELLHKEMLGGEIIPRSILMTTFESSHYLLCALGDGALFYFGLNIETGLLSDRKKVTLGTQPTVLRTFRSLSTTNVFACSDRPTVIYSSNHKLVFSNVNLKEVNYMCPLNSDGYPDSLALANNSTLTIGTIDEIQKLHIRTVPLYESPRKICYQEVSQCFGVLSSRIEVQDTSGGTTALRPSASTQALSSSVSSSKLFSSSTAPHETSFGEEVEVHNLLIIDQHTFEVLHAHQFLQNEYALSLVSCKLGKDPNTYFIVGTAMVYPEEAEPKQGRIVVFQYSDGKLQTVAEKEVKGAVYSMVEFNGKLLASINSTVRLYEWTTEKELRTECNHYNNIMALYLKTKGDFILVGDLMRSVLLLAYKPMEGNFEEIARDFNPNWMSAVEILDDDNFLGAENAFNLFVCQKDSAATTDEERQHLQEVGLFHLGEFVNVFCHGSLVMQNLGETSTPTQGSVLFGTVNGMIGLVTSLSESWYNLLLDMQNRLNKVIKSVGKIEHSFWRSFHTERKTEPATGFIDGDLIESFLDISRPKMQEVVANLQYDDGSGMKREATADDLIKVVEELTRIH
T1 sequence (P30291 whole entry): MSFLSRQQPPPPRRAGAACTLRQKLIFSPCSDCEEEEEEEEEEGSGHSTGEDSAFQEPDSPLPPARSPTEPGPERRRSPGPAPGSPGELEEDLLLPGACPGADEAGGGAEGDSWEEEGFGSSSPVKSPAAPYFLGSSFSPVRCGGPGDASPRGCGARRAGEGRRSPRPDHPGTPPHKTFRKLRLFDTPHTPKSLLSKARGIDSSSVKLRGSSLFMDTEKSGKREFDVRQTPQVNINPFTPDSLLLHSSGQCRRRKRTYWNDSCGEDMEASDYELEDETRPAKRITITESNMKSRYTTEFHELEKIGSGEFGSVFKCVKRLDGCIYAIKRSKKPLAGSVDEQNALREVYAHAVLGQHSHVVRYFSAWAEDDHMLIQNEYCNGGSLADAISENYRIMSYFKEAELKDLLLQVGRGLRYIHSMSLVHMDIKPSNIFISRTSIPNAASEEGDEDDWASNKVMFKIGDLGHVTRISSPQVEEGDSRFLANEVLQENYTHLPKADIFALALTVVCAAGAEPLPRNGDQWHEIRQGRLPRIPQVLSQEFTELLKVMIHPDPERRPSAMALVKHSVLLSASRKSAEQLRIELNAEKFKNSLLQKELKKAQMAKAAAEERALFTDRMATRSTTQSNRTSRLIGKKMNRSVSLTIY
T1 sequence (Q96SW2 whole entry): as the sequence (Q96SW2 whole entry) above
T1 sequence (Q16531 whole entry partner): as the sequence (Q16531 whole entry partner) above
T5 sequence (P48729 whole entry): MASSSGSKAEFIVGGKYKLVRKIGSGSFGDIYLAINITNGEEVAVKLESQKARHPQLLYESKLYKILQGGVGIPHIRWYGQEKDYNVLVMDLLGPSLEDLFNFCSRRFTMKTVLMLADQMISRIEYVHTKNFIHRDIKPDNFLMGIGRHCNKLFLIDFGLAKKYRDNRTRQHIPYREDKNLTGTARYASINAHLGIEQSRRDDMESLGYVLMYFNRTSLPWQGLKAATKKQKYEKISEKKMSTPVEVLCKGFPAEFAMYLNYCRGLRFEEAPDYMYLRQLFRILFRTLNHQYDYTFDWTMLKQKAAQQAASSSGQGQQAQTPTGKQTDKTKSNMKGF
T5 sequence (Q96SW2 whole entry): as the sequence (Q96SW2 whole entry) above
T5 sequence (Q16531 whole entry partner): as the sequence (Q16531 whole entry partner) above
T3 sequence (Q9UKS7 whole entry): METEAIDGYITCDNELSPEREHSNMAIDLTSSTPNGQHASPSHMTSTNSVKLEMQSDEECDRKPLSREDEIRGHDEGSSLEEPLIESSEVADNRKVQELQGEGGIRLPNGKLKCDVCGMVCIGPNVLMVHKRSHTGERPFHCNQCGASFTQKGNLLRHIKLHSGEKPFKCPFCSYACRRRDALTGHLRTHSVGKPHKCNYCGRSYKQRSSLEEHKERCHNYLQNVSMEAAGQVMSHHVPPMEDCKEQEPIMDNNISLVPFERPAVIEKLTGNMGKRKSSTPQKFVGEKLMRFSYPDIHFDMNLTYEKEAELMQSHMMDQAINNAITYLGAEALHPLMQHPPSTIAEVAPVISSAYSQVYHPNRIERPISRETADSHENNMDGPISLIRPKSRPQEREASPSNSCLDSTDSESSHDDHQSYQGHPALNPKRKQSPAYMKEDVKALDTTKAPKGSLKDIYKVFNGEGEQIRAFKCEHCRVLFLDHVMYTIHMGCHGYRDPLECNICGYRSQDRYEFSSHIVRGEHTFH
T3 sequence (Q96SW2 whole entry): as the sequence (Q96SW2 whole entry) above
T3 sequence (Q16531 whole entry partner): as the sequence (Q16531 whole entry partner) above
T4 sequence (Q9UKT9 whole entry): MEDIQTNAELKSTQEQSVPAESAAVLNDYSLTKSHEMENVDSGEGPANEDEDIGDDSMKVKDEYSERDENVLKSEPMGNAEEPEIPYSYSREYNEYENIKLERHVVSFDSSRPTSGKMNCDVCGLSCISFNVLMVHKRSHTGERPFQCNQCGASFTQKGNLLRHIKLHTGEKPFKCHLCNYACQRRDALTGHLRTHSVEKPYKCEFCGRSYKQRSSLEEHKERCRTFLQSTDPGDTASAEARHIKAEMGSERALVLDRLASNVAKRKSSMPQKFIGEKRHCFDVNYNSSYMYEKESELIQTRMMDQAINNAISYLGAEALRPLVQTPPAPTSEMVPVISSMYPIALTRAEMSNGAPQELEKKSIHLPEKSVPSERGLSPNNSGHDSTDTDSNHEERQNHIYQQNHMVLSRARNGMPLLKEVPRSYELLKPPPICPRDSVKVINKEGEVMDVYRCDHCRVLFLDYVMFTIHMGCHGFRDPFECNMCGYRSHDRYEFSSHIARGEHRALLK
T4 sequence (Q96SW2 whole entry): as the sequence (Q96SW2 whole entry) above
T4 sequence (Q16531 whole entry partner): as the sequence (Q16531 whole entry partner) above

SMILES	WEE1 substrate protein remaining % [1]	IKZF1 substrate protein remaining % [2]	IKZF2 substrate protein remaining % [3]	IKZF3 substrate protein remaining % [4]	CK1α substrate protein remaining % [5]	GSPT1 substrate protein remaining % [6]
COc1ccc(N2CCN(Cc3ccc4c(c3)C(=O)N(N3CCC(=O)NC3=O)C4=O)CC2)cc1 [GT-06728, 2-(2,4-dioxotetrahydropyrimidin-1(2H)-yl)-5-((4-(4-methoxyphenyl)piperazin-1-yl)methyl)isoindoline-1,3-dione]	B (80%< substrate protein remaining % ≤100%)	B (80%< substrate protein remaining % ≤100%)	A (0% ≤ substrate protein remaining % ≤80%)	A (0% ≤ substrate protein remaining % ≤80%)	A (0% ≤ substrate protein remaining % ≤80%)	B (80%< substrate protein remaining % ≤100%)
COc1ccc(N2CCN(Cc3ccc4c(c3)CN(N3CCC(=O)NC3=O)C4=O)CC2)cc1 [GT-06767, 1-(5-((4-(4-methoxyphenyl)piperazin-1-yl)methyl)-1-oxoisoindolin-2-yl)dihydropyrimidine-2,4(1H,3H)-dione]	A (0% ≤ substrate protein remaining % ≤80%)	A (0% ≤ substrate protein remaining % ≤80%)	A (0% ≤ substrate protein remaining % ≤80%)	A (0% ≤ substrate protein remaining % ≤80%)	A (0% ≤ substrate protein remaining % ≤80%)	A (0% ≤ substrate protein remaining % ≤80%)
O=C1CCN(N2Cc3cc(CN4CCN(c5ccc(Br)cc5)CC4)ccc3C2=O)C(=O)N1 [GT-06768, 1-(5-((4-(4-bromophenyl)piperazin-1-yl)methyl)-1-oxoisoindolin-2-yl)dihydropyrimidine-2,4(1H,3H)-dione]	A (0% ≤ substrate protein remaining % ≤80%)	B (80%< substrate protein remaining % ≤100%)	B (80%< substrate protein remaining % ≤100%)	A (0% ≤ substrate protein remaining % ≤80%)	A (0% ≤ substrate protein remaining % ≤80%)	A (0% ≤ substrate protein remaining % ≤80%)
Cc1ccccc1N1CCN(Cc2ccc3c(c2)CN(N2CCC(=O)NC2=O)C3=O)CC1 [GT-06769, 1-(1-oxo-5-((4-(o-tolyl)piperazin-1-yl)methyl)isoindolin-2-yl)dihydropyrimidine-2,4(1H,3H)-dione]	A (0% ≤ substrate protein remaining % ≤80%)	B (80%< substrate protein remaining % ≤100%)	A (0% ≤ substrate protein remaining % ≤80%)	A (0% ≤ substrate protein remaining % ≤80%)	A (0% ≤ substrate protein remaining % ≤80%)	A (0% ≤ substrate protein remaining % ≤80%)
Cc1ccc(N2CCN(Cc3ccc4c(c3)CN(N3CCC(=O)NC3=O)C4=O)CC2)cc1 [GT-06771, 1-(1-oxo-5-((4-(p-tolyl)piperazin-1-yl)methyl)isoindolin-2-yl)dihydropyrimidine-2,4(1H,3H)-dione]	A (0% ≤ substrate protein remaining % ≤80%)	B (80%< substrate protein remaining % ≤100%)	A (0% ≤ substrate protein remaining % ≤80%)	A (0% ≤ substrate protein remaining % ≤80%)	A (0% ≤ substrate protein remaining % ≤80%)	A (0% ≤ substrate protein remaining % ≤80%)
O=C1CCN(N2Cc3cc(CN4CCN(c5ccc(Cl)cc5Cl)CC4)ccc3C2=O)C(=O)N1 [GT-06772, 1-(5-((4-(2,4-dichlorophenyl)piperazin-1-yl)methyl)-1-oxoisoindolin-2-yl)dihydropyrimidine-2,4(1H,3H)-dione]	A (0% ≤ substrate protein remaining % ≤80%)	B (80%< substrate protein remaining % ≤100%)	A (0% ≤ substrate protein remaining % ≤80%)	A (0% ≤ substrate protein remaining % ≤80%)	A (0% ≤ substrate protein remaining % ≤80%)	A (0% ≤ substrate protein remaining % ≤80%)
O=C1CCN(N2Cc3cc(CN4CCN(c5c(Cl)cccc5Cl)CC4)ccc3C2=O)C(=O)N1 [GT-06774, 1-(5-((4-(2,6-dichlorophenyl)piperazin-1-yl)methyl)-1-oxoisoindolin-2-yl)dihydropyrimidine-2,4(1H,3H)-dione]	B (80%< substrate protein remaining % ≤100%)	B (80%< substrate protein remaining % ≤100%)	A (0% ≤ substrate protein remaining % ≤80%)	A (0% ≤ substrate protein remaining % ≤80%)	A (0% ≤ substrate protein remaining % ≤80%)	A (0% ≤ substrate protein remaining % ≤80%)
O=C1CCN(N2Cc3cc(CN4CCN(c5ccc(Cl)c(Cl)c5)CC4)ccc3C2=O)C(=O)N1 [GT-06775, 1-(5-((4-(3,4-dichlorophenyl)piperazin-1-yl)methyl)-1-oxoisoindolin-2-yl)dihydropyrimidine-2,4(1H,3H)-dione]	B (80%< substrate protein remaining % ≤100%)	B (80%< substrate protein remaining % ≤100%)	A (0% ≤ substrate protein remaining % ≤80%)	A (0% ≤ substrate protein remaining % ≤80%)	A (0% ≤ substrate protein remaining % ≤80%)	A (0% ≤ substrate protein remaining % ≤80%)
O=C1CCN(N2Cc3cc(CN4CCN(c5ccc(F)cc5F)CC4)ccc3C2=O)C(=O)N1 [GT-06778, 1-(5-((4-(2,4-difluorophenyl)piperazin-1-yl)methyl)-1-oxoisoindolin-2-yl)dihydropyrimidine-2,4(1H,3H)-dione]	B (80%< substrate protein remaining % ≤100%)	B (80%< substrate protein remaining % ≤100%)	B (80%< substrate protein remaining % ≤100%)	B (80%< substrate protein remaining % ≤100%)	A (0% ≤ substrate protein remaining % ≤80%)	A (0% ≤ substrate protein remaining % ≤80%)
O=C1CCN(N2Cc3cc(CN4CCN(c5cc(F)ccc5F)CC4)ccc3C2=O)C(=O)N1 [GT-06779, 1-(5-((4-(2,5-difluorophenyl)piperazin-1-yl)methyl)-1-oxoisoindolin-2-yl)dihydropyrimidine-2,4(1H,3H)-dione]	B (80%< substrate protein remaining % ≤100%)	B (80%< substrate protein remaining % ≤100%)	B (80%< substrate protein remaining % ≤100%)	B (80%< substrate protein remaining % ≤100%)	A (0% ≤ substrate protein remaining % ≤80%)	B (80%< substrate protein remaining % ≤100%)
O=C1CCN(N2Cc3cc(CN4CCN(c5c(F)cccc5F)CC4)ccc3C2=O)C(=O)N1 [GT-06780, 1-(5-((4-(2,6-difluorophenyl)piperazin-1-yl)methyl)-1-oxoisoindolin-2-yl)dihydropyrimidine-2,4(1H,3H)-dione]	B (80%< substrate protein remaining % ≤100%)	B (80%< substrate protein remaining % ≤100%)	B (80%< substrate protein remaining % ≤100%)	B (80%< substrate protein remaining % ≤100%)	A (0% ≤ substrate protein remaining % ≤80%)	B (80%< substrate protein remaining % ≤100%)
O=C1CCN(N2Cc3cc(CN4CCN(c5ccc(F)c(F)c5)CC4)ccc3C2=O)C(=O)N1 [GT-06781, 1-(5-((4-(3,4-difluorophenyl)piperazin-1-yl)methyl)-1-oxoisoindolin-2-yl)dihydropyrimidine-2,4(1H,3H)-dione]	B (80%< substrate protein remaining % ≤100%)	B (80%< substrate protein remaining % ≤100%)	B (80%< substrate protein remaining % ≤100%)	B (80%< substrate protein remaining % ≤100%)	A (0% ≤ substrate protein remaining % ≤80%)	A (0% ≤ substrate protein remaining % ≤80%)
O=C1CCN(N2Cc3cc(CN4CCN(c5cc(F)cc(F)c5)CC4)ccc3C2=O)C(=O)N1 [GT-06782, 1-(5-((4-(3,5-difluorophenyl)piperazin-1-yl)methyl)-1-oxoisoindolin-2-yl)dihydropyrimidine-2,4(1H,3H)-dione]	B (80%< substrate protein remaining % ≤100%)	B (80%< substrate protein remaining % ≤100%)	B (80%< substrate protein remaining % ≤100%)	B (80%< substrate protein remaining % ≤100%)	A (0% ≤ substrate protein remaining % ≤80%)	A (0% ≤ substrate protein remaining % ≤80%)
